Laboratory results from US12582661B2, “Synthesis and application of class of respiratory syncytial virus inhibitors” (SHANGHAI ARK BIOPHARMACEUTICAL CO., LTD., priority 2020, dated 2026).
Read-outs that look alike come from different tables or passages of the source.

Assays:
RSV Long strain = assay: Virus cytopathic effect (CPE) assay, anti-RSV activity in HEp-2 cells; assay type: cell-based; conditions: human respiratory syncytial virus, 96 h, RSV Long strain 0.5 MOI, CellTiter-Glo after 4 days
Procedure: HEp-2 cells (ATCC CCL-23, human laryngeal carcinoma epithelial cells) were purchased from American Type Culture Collection and the culture conditions were as follows: 1% double antibody was added to Dulbecco modified Eagle medium (DMEM) medium containing 10% fetal bovine serum (FBS), and maintained in a 5% CO2 incubator and cultured at 37° C. To evaluate the anti-RSV activity of compounds, cells were seeded in a 96-well plate at a density of 5×10^3 cells/well in Hyclone™ (DMEM) containing 10% fetal bovine serum (FBS). The following day, cells were infected with a 0.5 MOI of RSV Long strain (ATCC) in the presence of 3-fold serial dilutions of compound to a total volume of 100 μL per well. The cell viability was evaluated by the cell counting kit CellTiter-Glo Reagent after 4 days. The fluorescence signal was read on a multi-mode microplate reader and the 50% effective concentration EC50 was determined by the fluorescence value. The RSV inhibition activities of the compounds involved in Examples 1 to 15 disclosed herein were evaluated according to the above method, and the results are shown in Table 3 below.

[1] = Pharmacokinetics in ICR mice, plasma drug concentrations; assay type: in vivo; conditions: for AUC(0-inf) / Cmax / Tmax / clearance / half-life / AUC(0-t) / Vd: ICR, mouse plasma; for AUC(0-t): read-out: AUC0-12; for Vd: read-out: Vss; for concentration at 0.083 h / concentration at 0.25 h / concentration at 0.5 h / concentration at 1 h / concentration at 2 h / concentration at 4 h / concentration at 8 h / concentration at 24 h / concentration at 12 h: mouse, plasma; for concentration at 0.083 h / concentration at 0.25 h / concentration at 0.5 h / concentration at 1 h / concentration at 2 h / concentration at 4 h / concentration at 8 h / concentration at 24 h / F / concentration at 12 h: ICR mice; for F: p.o. 10 mg/kg vs i.v. 2 mg/kg
Procedure: The pharmacokinetics were further tested of Example 4 and Example 7 disclosed herein and Example 61-1 (Comparative Example 1) in patent WO2013020993 in ICR mice. A single intravenous injection (dose of 2 mg/kg) and a single oral administration (dose of 10 mg/kg) were taken respectively. Blood collection point: before administration, 5 min, 15 min, 30 min, 1 h, 2 h, 4 h, 8 h, 12 h, 24 h after administration. The same method was applied to the pharmacokinetics of the above Comparative Example 1 in ICR mice, with a single intravenous injection (dose of 2 mg/kg) and a single oral administration (dose of 10 mg/kg) respectively.

[2] = test system: respiratory syncytial virus; conditions: cited from earlier work
RSV = conditions: oral; cited from earlier work

## Cc1ccc2nc(N3CCS(=O)(=O)c4ccccc4C3)nc(N3CC(O)(CN)C3)c2c1 [Example 10, 4-(4-(3-(Aminomethyl)-3-hydroxyazetidin-1-yl)-6-methylquinazolin-2-yl)-2,3,4,5-tetrahydrobenzo[f][1,4]thiazepine 1,1-dioxide]
RSV Long strain
  IC50: 3.3 nM

## Cc1ccc2nc(N3CCS(=O)(=O)c4ccccc4C3)nc(NC3CC4(CNC4)C3)c2c1 [Example 15, 4-(4-((2-azaspiro[3.3]heptan-6-yl)amino)-6-methylquinazolin-2-yl)-2,3,4,5-tetrahydrobenzo[f][1,4]thiazepine 1,1-dioxide]
RSV Long strain
  IC50: 3.7 nM

## NCC1(CO)CN(c2nc(N3CCS(=O)(=O)c4ccccc4C3)nc3ccc(C(F)F)cc23)C1 [Example 5, 4-(4-(3-(Aminomethyl)-3-(hydroxymethyl)azetidin-1-yl)-6-(difluoromethyl)quinazolin-2-yl)-2,3,4,5-tetrahydrobenzo[f][1,4]thiazepine 1,1-dioxide]
RSV Long strain
  IC50: 7.9 nM

## NC1CN(c2nc(N3CCS(=O)(=O)c4ccccc4C3)nc3ccc(C(F)F)cc23)C1 [Example 4, 4-(4-(3-Aminoazetidin-1-yl)-6-(difluoromethyl)quinazolin-2-yl)-2,3,4,5-tetrahydrobenzo[f][1,4]thiazepine 1,1-dioxide]
RSV Long strain
  IC50: 7 nM
[1]; iv, i.v. 2 mg/kg
  AUC(0-inf): 1010 ng·h/mL
  Cmax: 82.4 ng/mL
  Tmax: 4 h
  clearance: 32.8 mL/min/kg
  half-life: 3.4 h
  AUC(0-t): 1010 ng·h/mL
  Vd: 13.1 L/kg
  concentration at 0.083 h: 38 ng/mL
  concentration at 0.25 h: 38.4 ng/mL
  concentration at 0.5 h: 30.7 ng/mL
  concentration at 1 h: 34.5 ng/mL
  concentration at 2 h: 43.9 ng/mL
  concentration at 4 h: 82.4 ng/mL
  concentration at 8 h: 62.8 ng/mL
  concentration at 24 h: 1.7 ng/mL
[1]; po, p.o. 10 mg/kg
  AUC(0-inf): 3780 ng·h/mL
  Cmax: 505 ng/mL
  Tmax: 2 h
  half-life: 3.3 h
  AUC(0-t): 3760 ng·h/mL
  concentration at 0.083 h: 49.7 ng/mL
  concentration at 0.25 h: 274 ng/mL
  concentration at 0.5 h: 407 ng/mL
  concentration at 1 h: 432 ng/mL
  concentration at 2 h: 505 ng/mL
  concentration at 4 h: 380 ng/mL
  concentration at 8 h: 128 ng/mL
  concentration at 24 h: 5.4 ng/mL
[1]
  F: 74.6%

## Cc1ccc2nc(N3CCS(=O)(=O)c4ccccc4C3)nc(NCC3(O)CNC3)c2c1 [Example 8, 4-(4-(((3-Hydroxyazetidin-3-yl)methyl)amino)-6-methylquinazolin-2-yl)-2,3,4,5-tetrahydrobenzo[f][1,4]thiazepine 1,1-dioxide]
RSV Long strain
  IC50: 2.9 nM

## Cc1ccc2nc(N3CCS(=O)(=O)c4ccccc4C3)nc(N3CC(CN)(CO)C3)c2c1 [Example 3, 4-(4-(3-(Aminomethyl)-3-(hydroxymethyl)azetidin-1-yl)-6-methylquinazolin-2-yl)-2,3,4,5-tetrahydrobenzo[f][1,4]thiazepine 1,1-dioxide]
RSV Long strain
  IC50: 5 nM

## CC(C)C(=O)OC[C@@]1(CCl)O[C@@H](n2ccc(N)nc2=O)[C@H](F)[C@@H]1OC(=O)C(C)C [ALS-8176]
[2]
  volunteers with reduced respiratory syncytial virus load: more than 85%

## Cc1ccc2nc(N3CCS(=O)(=O)c4ccccc4C3)nc(NC3CC(N)C3)c2c1 (centres unmarked) [Example 12, 4-(4-((3-Aminocyclobutyl)amino)-6-methylquinazolin-2-yl)-2,3,4,5-tetrahydrobenzo[f][1,4]thiazepine 1,1-dioxide]
RSV Long strain
  IC50: 1.7 nM

## Cc1ccc2nc(N3CCS(=O)(=O)c4ccccc4C3)nc(N3CC(CN)C3)c2c1 [Example 11, 4-(4-(3-(Aminomethyl)azetidin-1-yl)-6-methylquinazolin-2-yl)-2,3,4,5-tetrahydrobenzo[f][1,4]thiazepine 1,1-dioxide]
RSV Long strain
  IC50: 1.2 nM

## O=S1(=O)CCN(c2nc(NC3CNC3)c3cc(C(F)F)ccc3n2)Cc2ccccc21 [Example 6, 4-(4-(Azetidin-3-ylamino)-6-(difluoromethyl)quinazolin-2-yl)-2,3,4,5-tetrahydrobenzo[f][1,4]thiazepine 1,1-dioxide]
RSV Long strain
  IC50: 4.9 nM

## Cc1cn2nc([C@@H]3CCCCN3C(=O)c3cc(Cl)ccc3NS(C)(=O)=O)cc2nc1N1CC[C@H](N)C1 [GS-5806]
RSV
  viral load, mucus quantity and symptom scores: decrease viral load, mucus quantity and symptom scores

## NC1(CNc2nc(N3CCS(=O)(=O)c4ccccc4C3)nc3ccc(C(F)F)cc23)COC1 [Example 7, 4-(4-(((3-Aminooxetan-3-yl)methyl)amino)-6-(difluoromethyl)quinazolin-2-yl)-2,3,4,5-tetrahydrobenzo[f][1,4]thiazepine 1,1-dioxide]
RSV Long strain
  IC50: 4.1 nM
[1]; iv, i.v. 2 mg/kg
  AUC(0-inf): 579 ng·h/mL
  Cmax: 815 ng/mL
  Tmax: 0.08 h
  clearance: 57.6 mL/min/kg
  half-life: 1.6 h
  AUC(0-t): 573 ng·h/mL
  Vd: 3.33 L/kg
  concentration at 0.083 h: 815 ng/mL
  concentration at 0.25 h: 540 ng/mL
  concentration at 0.5 h: 335 ng/mL
  concentration at 1 h: 128 ng/mL
  concentration at 2 h: 35 ng/mL
  concentration at 4 h: 12.3 ng/mL
  concentration at 8 h: 2.7 ng/mL
  concentration at 12 h: 1.3 ng/mL
  concentration at 24 h: 1.5 ng/mL
[1]; po, p.o. 10 mg/kg
  AUC(0-inf): 481 ng·h/mL
  Cmax: 287 ng/mL
  Tmax: 0.5 h
  half-life: 1.3 h
  AUC(0-t): 476 ng·h/mL
  concentration at 0.083 h: 233 ng/mL
  concentration at 0.25 h: 262 ng/mL
  concentration at 0.5 h: 287 ng/mL
  concentration at 1 h: 180 ng/mL
  concentration at 2 h: 50.1 ng/mL
  concentration at 4 h: 16.7 ng/mL
  concentration at 8 h: 4.6 ng/mL
  concentration at 12 h: 2.9 ng/mL
  concentration at 24 h: 1.4 ng/mL
[1]
  F: 16.62%

## Cc1ccc2nc(N3CCS(=O)(=O)c4ccccc4C3)nc(NCC3CNC3)c2c1 [Example 2, 4-(4-((Azetidin-3-ylmethyl)amino)-6-methylquinazolin-2-yl)-2,3,4,5-tetrahydrobenzo[f][1,4]thiazepine 1,1-dioxide]
RSV Long strain
  IC50: 6.3 nM

## Cc1ccc2nc(N3CCS(=O)(=O)c4ccccc4C3)nc(N3CCC(O)(CN)C3)c2c1 (centres unmarked) [Example 9, 4-(4-(3-(Aminomethyl)-3-hydroxypyrrolidin-1-yl)-6-methylquinazolin-2-yl)-2,3,4,5-tetrahydrobenzo[f][1,4]thiazepine 1,1-dioxide]
RSV Long strain
  IC50: 0.9 nM

## Cc1ccc2nc(N3CCS(=O)(=O)c4ccccc4C3)nc(N[C@H]3CNC[C@@H]3O)c2c1 [Example 14, 4-(4-(((3S,4S)-4-hydroxypyrrolidin-3-yl)amino)-6-methylquinazolin-2-yl)-2,3,4,5-tetrahydrobenzo[f][1,4]thiazepine 1,1-dioxide]
RSV Long strain
  IC50: 1.3 nM

## Cc1ccc2nc(N3CCS(=O)(=O)c4ccccc4C3)nc(N3CC(N)C3)c2c1 [Example 1, 4-(4-(3-Aminoazetidin-1-yl)-6-methylquinazolin-2-yl)-2,3,4,5-tetrahydrobenzo[f][1,4]thiazepine 1,1-dioxide]
RSV Long strain
  IC50: 4.4 nM

## Cc1ccc2nc(N3CCS(=O)(=O)c4ccccc4C3)nc(N3CC(N)(CN)C3)c2c1 [Example 13, 4-(4-(3-Amino-3-(aminomethyl)azetidin-1-yl)-6-methylquinazolin-2-yl)-2,3,4,5-tetrahydrobenzo[f][1,4]thiazepine 1,1-dioxide]
RSV Long strain
  IC50: 9.6 nM
